From the supplement of paper PMC8988213
Where a name gives a salt, the structure may show the parent alone.

What was measured:
[1] = test system: ID188 patient-derived PDAC 2D line (pre-FOLFIRINOX); experiment: normalised area under dose-response curve (viability relative to DMSO, 7 doses up to 10 µM) (fraction (AUC)); higher = less sensitive (more viability retained); details: 72 h; top dose: 10 µM
Procedure, shortened: (§1)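 SelleckChem library compounds were tested for 72 h at seven concentrations (3-fold steps, highest 10 µM) on patient-derived 2D PDAC cells grown out from organoids. These cells had been robotically placed at 1,500–3,000 cells/well in 96-well plates and incubated overnight at 37°C with 5% CO2, and luminescence from CellTiter-Glo was recorded after 10 min. The GRmetrics R package gave the area under the dose-response curve from viability normalised to control wells.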

[2] = test system: ID211 patient-derived PDAC 2D line (post-FOLFIRINOX); experiment: as above; details: 72 h; top dose: 10 µM
Procedure, shortened: as §1

| Structure (SMILES) | normalised area under dose-response curve [1] | normalised area under dose-response curve [2] |
| --- | --- | --- |
| CCC[C@H](NC(=O)/C(C#N)=C/c1cccc(Br)n1)c1ccccc1 [Degrasyn (WP1130)] | 0.869 | 0.82 |
| COc1cc2c(cc1OC)[C@@H]1C(=O)c3ccc4c(c3O[C@@H]1CO2)C=CC(C)(C)O4 [Deguelin] | 0.886 | 0.75 |
| CN1CCN(c2ccc3nc(-c4c(N)c5c(F)cccc5[nH]c4=O)[nH]c3c2)CC1 [Dovitinib (TKI258) Lactate] | 1.01 | 0.904 |
| COc1cccc2c1C(=O)c1c(O)c3c(c(O)c1C2=O)CC(O)(C(=O)CO)CC3OC1CC(N)C(O)C(C)O1 (configuration not stated) [Doxorubicin (Adriamycin) HCl] | 0.672 | 0.584 |
| Cc1cc(Cl)ccc1OCCCC(=O)NO [Droxinostat] | 0.946 | 0.936 |
| CS(=O)(=O)c1ccc(-c2cnc(NCc3ccco3)n3cnnc23)cc1 [EED226] | 0.955 | 0.846 |
| CN(NC(=O)CC(=O)NN(C)C(=S)c1ccccc1)C(=S)c1ccccc1 [Elesclomol (STA-4783)] | 0.179 | 0.0189 |
| NC(=O)/C(=C/n1cnc(-c2cc(C(F)(F)F)cc(C(F)(F)F)c2)n1)c1cncnc1 [Eltanexor (KPT-8602)] | 0.574 | 0.579 |
| CC(C)(O)CNc1nc(Nc2ccnc(C(F)(F)F)c2)nc(-c2cccc(C(F)(F)F)n2)n1 [Enasidenib (AG-221)] | 0.97 | 0.875 |
| Nc1ccccc1NC(=O)c1ccc(CNC(=O)OCc2cccnc2)cc1 [Entinostat (MS-275)] | 0.835 | 0.73 |
| c1cn2cc(-c3ccc4cn[nH]c4c3)nc(Nc3ccc(N4CCOCC4)cc3)c2n1 [Entospletinib (GS-9973)] | 0.891 | 0.792 |
| CN1CCN(c2ccc(C(=O)Nc3n[nH]c4ccc(Cc5cc(F)cc(F)c5)cc34)c(NC3CCOCC3)c2)CC1 [Entrectinib (RXDX-101)] | 0.813 | 0.706 |
| CCOc1ccccc1-n1c(C(C)N2CCN(C(=O)COc3ccc(Cl)cc3)CC2)nc2ccccc2c1=O (configuration not stated) [Erastin] | 0.856 | 0.813 |
| C#Cc1cccc(Nc2ncnc3cc(OCCOC)c(OCCOC)cc23)c1 [Erlotinib] | 0.902 | 0.7 |
| COc1cc([C@@H]2c3cc4c(cc3[C@@H](O[C@@H]3O[C@@H]5CO[C@@H](C)O[C@H]5[C@H](O)[C@H]3O)[C@H]3COC(=O)[C@H]23)OCO4)cc(OC)c1O [Etoposide] | 0.946 | 0.853 |
| Cc1cc([N+](=O)[O-])ccc1NS(=O)(=O)c1cc(Cl)ccc1Cl [FH535] | 0.91 | 0.922 |
| CC1=C(C(=O)OC2CCCCC2)C(c2ccc([N+](=O)[O-])cc2)C2=C(CC(C)(C)CC2=O)N1 (configuration not stated) [FLI-06] | 0.936 | 0.792 |
| O=c1[nH]cc(F)c(=O)[nH]1 [Fluorouracil (5-Fluoracil, 5-FU)] | 0.854 | 0.804 |
| CC(C)n1c(/C=C/C(O)CC(O)CC(=O)O)c(-c2ccc(F)cc2)c2ccccc21 (configuration not stated) [Fluvastatin Sodium] | 0.87 | 0.807 |
| CN[C@@H](C)C(=O)N[C@H](C(=O)N1CCC[C@H]1C(=O)Nc1snnc1-c1ccccc1)C1CCCCC1 [GDC-0152] | 0.667 | 0.849 |
| Cn1nccc1Nc1nccc(-c2ccn([C@H](CO)c3ccc(Cl)c(F)c3)c(=O)c2)n1 [GDC-0994] | 0.824 | 0.677 |
| N#CN=C(NCCCCCCOc1ccc(Cl)cc1)Nc1ccncc1 [GMX1778 (CHS828)] | 0.283 | 0.296 |
| CC[C@H](C)n1cc(C)c2c(C(=O)NCc3c(C)cc(C)[nH]c3=O)cc(-c3ccc(N4CCNCC4)nc3)cc21 [GSK126] | 1.02 | 0.95 |

| Structure (SMILES) | normalised area under dose-response curve [1] | normalised area under dose-response curve [2] |
| --- | --- | --- |
| Cc1cc(C)c(CNC(=O)c2cc(-c3ccc(N4CCN(C)CC4)nc3)cc3c2c(C)cn3C(C)C)c(=O)[nH]1 [GSK503] | 0.992 | 0.891 |
| CC(C)(C)S(=O)(=O)c1ccc2nccc(Nc3n[nH]c4ccc(F)cc34)c2c1 [GSK583] | 0.9 | 0.893 |
| O=C(NC[C@H](O)CN1CCc2ccccc2C1)c1ccnc(NC2CCC2)c1 [GSK591] | 0.843 | 0.881 |
| CC(C)(C)C(=O)N1N=CC[C@H]1c1ccccc1 [GSK963] | 0.939 | 0.857 |
| CCCOc1ccn2c(C(C)=O)cc(-c3ccccc3S(C)(=O)=O)c2c1 [GSK2801] | 0.964 | 0.782 |
| O=C(O)CCNc1cc(N2CCc3ccccc3CC2)nc(-c2ccccn2)n1 [GSK J1] | 1 | 0.832 |
| Cc1cc(SCc2sc(-c3ccc(C(F)(F)F)c(F)c3)nc2C)ccc1OCC(=O)O [GW0742] | 0.763 | 0.93 |
| O=C(O)Cc1cccc(OCCCN(Cc2cccc(C(F)(F)F)c2Cl)CC(c2ccccc2)c2ccccc2)c1 [GW3965 HCl] | 0.923 | 0.825 |
| O=C(Nc1ccccc1)c1cc([N+](=O)[O-])ccc1Cl [GW9662] | 0.931 | 0.936 |
| CC(C)c1cc(-c2n[nH]c(=O)n2-c2ccc3c(ccn3C)c2)c(O)cc1O [Ganetespib (STA-9090)] | 0.483 | 0.266 |
| Nc1ccn([C@@H]2O[C@H](CO)[C@@H](O)C2(F)F)c(=O)n1 [Gemcitabine HCl] | 0.57 | 0.583 |
| CCn1c2ccccc2c2cc(CNCc3ccccc3OC)ccc21 [HLCL-61 HCL] | 0.957 | 0.856 |
| Cc1nc(Nc2cnn(C3CCNCC3)c2)nc2c1N(C)C(=O)c1cc3ccccc3cc1N2C [HTH-01-015] | 1.2 | 0.823 |
| CCNC(=O)C[C@@H]1N=C(c2ccc(Cl)cc2)c2cc(OC)ccc2-n2c(C)nnc21 [I-BET-762] | 0.888 | 0.777 |
| CCn1cc(-c2cccc(C(F)(F)F)c2)c2sc(C(=N)NC3CCS(=O)(=O)CC3)cc2c1=O [I-BRD9] | 1.01 | 0.833 |
| O=C(O)c1ccc(O)c2ncccc12 [IOX1] | 0.95 | 0.871 |
| O=C(CSc1nc2c(c(=O)n1-c1ccccc1)SCC2)Nc1ccc(-c2ccccc2)cn1 [IWP-L6] | 0.968 | 0.804 |
| O=C(Nc1cccc2cccnc12)c1ccc(N2C(=O)[C@@H]3[C@H](C2=O)[C@@H]2C=C[C@H]3C2)cc1 [IWR-1-endo] | 0.938 | 0.808 |
| CNC(=O)[C@H](Cc1c[nH]c2ccccc12)NC(=O)[C@@H](CC(=O)NO)CC(C)C [Ilomastat (GM6001, Galardin)] | 1.05 | 0.809 |
| CC(Nc1nc(N2CCCC2)nc2ccccc12)c1ccccc1 (configuration not stated) [Importazole] | 0.956 | 0.849 |
| O=C1Nc2ccccc2/C1=C1/Nc2ccccc2C1=O [Indirubin] | 0.791 | 0.801 |
| NC(=O)c1ccc(I)c([N+](=O)[O-])c1 [Iniparib (BSI-201)] | 0.939 | 0.952 |
| CCc1c2c(nc3ccc(OC(=O)N4CCC(N5CCCCC5)CC4)cc13)-c1cc3c(c(=O)n1C2)COC(=O)[C@]3(O)CC [Irinotecan HCl Trihydrate] | 0.847 | 0.807 |
